The values below come from PMC6520840, “Antimicrobial and Antibiofilm Effects of Peptides from Venom of Social Wasp and Scorpion on Multidrug-Resistant Acinetobacter baumannii” (Toxins, 2019).

No end group written: not given here.

The subject of assay [1] is A. baumannii isolate AB 02. The assay is described as follows: Minimum inhibitory concentration (MIC), broth microdilution. Type of assay: cell-based, Acinetobacter baumannii. The note with it: peptides 25 to 1.56 μM, 24 h at 37 °C, OD 405 nm, triplicates. How it is done:
(§1) The minimum inhibitory concentration was determined by broth microdilution according to Wiegand et al.. The AB 02, […] and AB 72 isolates were grown in LB broth medium for 8 h at 37 °C until they reached a growth turbidity corresponding to 0.5 of the McFarland scale. Thirty microliters of each culture were added in the wells of polystyrene plates containing 170 µL of culture medium with different concentrations of the antimicrobial peptides. Agelaia-MPI, Polybia-MPII, Polydim-I, Con10 and NDBP 5.8 antimicrobial peptides were serially diluted from 25 to 1.56 μM. The plate containing different concentrations of individual peptides with the bacterial strains were incubated for 24 h at 37 °C, after which time the plates were read at the optical density of 405 nm. As positive control, bacterial strains without peptides were grown in the same conditions, and as negative control medium alone was used.
On the technique in general: Dilution methods test growth across graded concentrations, often in twofold steps.

The test system of assay [2] is A. baumannii isolate AB 72. The assay is described as above. The assay is classed as cell-based, Acinetobacter baumannii. The note with it: peptides 25 to 1.56 μM, 24 h at 37 °C, OD 405 nm, triplicates. How it is done:
as §1

For assay [3], the system named is A. baumannii isolate AB 53. The assay is described as above. The assay is classed as cell-based, Acinetobacter baumannii. The note with it: peptides 25 to 1.56 μM, 24 h at 37 °C, OD 405 nm, triplicates.
Assay [4] concerns A. baumannii isolate AB 02 biofilm. Kind of assay: Inhibition of biofilm formation on polystyrene plates (MBEC), crystal violet. The note with it: for Minimal inhibitory concentration against the formation of A. baumannii biofilm (MBEC): Isolate AB 02, polystyrene plate, LB 1/4 + 0.2% glucose, 29 °C, 24 h, crystal violet, OD 595 nm, peptides 25 to 1.56 μM. Type of assay: cell-based, Acinetobacter baumannii. On the procedure:
[…] [71] methodology with minor modifications. Initially, A. baumannii strains (AB 02, AB 53, and AB 72) were grown for 6 h in LB broth until reaching an optimum growth of 1.0 in the optical density of 600 nm and then the culture concentration was adjusted to 1.5 × 10^8 CFU/mL and 30 μL of the culture was added to the wells containing 170 μL de LB ¼ + 0.2% glucose containing serially diluted peptides ranging from 25 to 1.56 μM. Cells were incubated at 29 °C for 24 h to let biofilms be formed. The supernatant was removed and the wells were washed with 200 μL of PBS twice to remove the non-adherent and weakly adherent cells, maintaining only the mature biofilm formed on the plate. Biofilm quantification was measured by staining attached cells with 0.2% (w/v) violet crystal staining solubilized with ethanol/acetone (80/20 v/v) and quantified at 595 nm. The biofilms formed in cultures with different peptide concentrations were compared with the biofilms formed in cultures of A. baumannii strains without peptides. Analyses were performed in triplicate and three independent experiments were performed for each of these assays.

Assay [5] deals with A. baumannii isolate AB 53 biofilm. The description is as above. Type of assay: cell-based, Acinetobacter baumannii. The note with it: for Minimal inhibitory concentration against the formation of A. baumannii biofilm (MBEC): Isolate AB 53, polystyrene plate, LB 1/4 + 0.2% glucose, 29 °C, 24 h, crystal violet, OD 595 nm, peptides 25 to 1.56 μM. How it is done: (§2) In order to determine if individual peptides could avoid biofilm formation, the minimal biofilm eradication concentration (MBEC) determination assay was performed using 96-well […] plates according to Feng et al. methodology with minor modifications. Initially, A. baumannii strains (AB 02, AB 53, and AB 72) were grown for 6 h in LB broth until reaching an optimum growth of 1.0 in the optical density of 600 nm and then the culture concentration was adjusted to 1.5 × 10^8 CFU/mL and 30 μL of the culture was added to the wells containing 170 μL de LB ¼ + 0.2% glucose containing serially diluted peptides ranging from 25 to 1.56 μM. Cells were incubated at 29 °C for 24 h to let biofilms be formed. The supernatant was removed and the wells were washed with 200 μL of PBS twice to remove the non-adherent and weakly adherent cells, maintaining only the mature biofilm formed on the plate. Biofilm quantification was measured by staining attached cells with 0.2% (w/v) violet crystal staining solubilized with ethanol/acetone (80/20 v/v) and quantified at 595 nm. The biofilms formed in cultures with different peptide concentrations were compared with the biofilms formed in cultures of A. baumannii strains without peptides. Analyses were performed in triplicate and three independent experiments were performed for each of these assays.

In assay [6] the test system is A. baumannii isolate AB 72 biofilm. The assay is described as above. The assay is classed as cell-based, Acinetobacter baumannii. To be noted: for Minimal inhibitory concentration against the formation of A. baumannii biofilm (MBEC): Isolate AB 72, polystyrene plate, LB 1/4 + 0.2% glucose, 29 °C, 24 h, crystal violet, OD 595 nm, peptides 25 to 1.56 μM. On the procedure:
as §2

Assay [7] has as its system A. baumannii isolate AB 02. To be noted: cited from earlier work. How it is done:
(§3) In this work, three A. baumannii isolates previously described by Castilho et al. that were isolated from patients with hospital-acquired infections were used. Isolates AB 02 and AB 72 were resistant to ampicillin, amikacin, and ciprofloxacin. AB 53 isolate only presented resistance to ampicillin. […] Thus, AB 02 and AB 72 were considered as MDR strains. The ability to form biofilms by A. baumannii isolates AB 02, AB 53 and AB 72 was determined by crystal violet staining ...

The subject of assay [8] is A. baumannii isolate AB 72. The note with it: cited from earlier work. How it is done: as §3
The subject of assay [9] is A. baumannii isolate AB 53. The note with it: cited from earlier work. On the procedure: as §3
In another assay the test system is S. epidermidis biofilm. The assay is classed as cell-based, Staphylococcus epidermidis. To be noted: peptide at 12.5 μM, crystal violet. How it is done: (§4) To determine the formation of the biofilm of Staphylococcus spp., the methodology according to Kwasny and Opperman (2010) with modifications was used. Staphylococcus epidermidis and methicillin-resistant Staphylococcus aureus (MRSA) cryopreserved strains at −80 °C were reactivated in solid medium to obtain an isolated colony, which was inoculated in LB medium broth and cultured at 37 °C until they reached a concentration corresponding to 0.5 turbidity of the MacFarland scale. At that concentration, 30 μL of the bacterial culture was added to wells containing 170 μL of tryptic soy broth (HiMedia) broth with 1% glucose. The plate was incubated at 37 °C for 24 h. After this period the bacterial growth was quantified by optical density reading at 600 nm and the formation of the biofilm was determined by the colorimetric method similar to that used for Acinetobacter. The biofilm inhibition test also followed the standard for the previous tests, with modifications in the culture medium used to increase the bacterial biofilm production by Staphylococcus strains.

Assay [10] has as its system methicillin-resistant S. aureus (MRSA) biofilm. The assay is classed as cell-based, Staphylococcus aureus. The note with it: peptide at 12.5 μM, crystal violet. On the procedure:
as §4

The term MIC denotes the lowest concentration found to suppress growth. Consider FWSFLVKAASKILPSLIGGGDDNKSSS-NH2 [Con10], for which the results for the MIC in assay [1], in assay [2] and in assay [3] were 12.5 µM, 6.25 µM and 6.25 µM, respectively. The “Minimal inhibitory concentration against the formation of A. baumannii biofilm (MBEC)” value (from here on “Minimal inhibitory concentration”) in [4] worked out at 25 µM; in assay [5] it was 12.5 µM; in [6], 12.5 µM.

`O=C(O)c1cn(C2CC2)c2cc(N3CCNCC3)c(F)cc2c1=O` [ciprofloxacin]: the Antibiotic susceptibility category result in [7] and in [8] was “resistant” in each case.

For `C[C@@H](O)[C@H]1C(=O)N2C(C(=O)O)=C(S[C@@H]3CN[C@H](C(=O)N(C)C)C3)[C@H](C)[C@H]12` [meropenem], the Antibiotic susceptibility category entry in assay [9] and in assay [8] was “susceptible” throughout.

In the case of GILGKIWEGVKSLI-NH2 [NDBP-5.8], the MIC in assay [1], in assay [2] and in [3] was 25 µM each time. Besides, the “Minimal inhibitory concentration” value was over 25 µM in assay [4]; 25 µM in [4] (listed as NBDP 5.8); over 25 µM in assay [5]; 25 µM in assay [5] (listed as NBDP 5.8); over 25 µM in [6]; 25 µM in assay [6] (listed as NBDP 5.8). For the same molecule, the “Inhibition of the biofilm” value in assay [4] (isolate AB 02, peptide at 25 μM) was over 95%; in assay [5] (isolate AB 53, peptide at 25 μM), over 95%; in assay [6] (isolate AB 72, peptide at 25 μM), over 95%.

Consider `NCC[C@H](O)C(=O)N[C@@H]1C[C@H](N)[C@@H](O[C@H]2O[C@H](CN)[C@@H](O)[C@H](O)[C@H]2O)[C@H](O)[C@H]1O[C@H]1O[C@H](CO)[C@@H](O)[C@H](N)[C@H]1O` [amikacin], for which the Antibiotic susceptibility category result in [7] and in [8] was “resistant” in each case.

On to `CN(C)[C@@H]1C(O)=C(C(N)=O)C(=O)[C@@]2(O)C(O)=C3C(=O)c4c(O)cccc4[C@@](C)(O)[C@H]3C[C@@H]12` [tetracycline], for which the Antibiotic susceptibility category result in [7], in assay [9] and in [8] was “intermediate susceptibility” throughout.

In the case of INWLKLGKAIIDAL-NH2 [Agelaia-MPI], the figures for the MIC in [1] and in [3] were 6.25 µM and 3.12 µM, respectively. For the same molecule, the figures for the “Minimal inhibitory concentration” value in assay [4], in [5] and in assay [6] were 25 µM, 6.25 µM and 12.5 µM, respectively. The “Inhibition of biofilm formation” value (in the assay on S. epidermidis biofilm; in [10]) was 85% each time.

In the case of INWLKLGKMVIDAL-NH2 [Polybia-MPII], the figures for the MIC in [1], in assay [2] and in [3] were 12.5 µM, 6.25 µM and 6.25 µM, respectively. The figures for the “Minimal inhibitory concentration” value in assay [4], in [5] and in assay [6] were 25 µM, 12.5 µM and 25 µM, respectively. Moreover, the “Inhibition of biofilm formation” value (in the assay with S. epidermidis biofilm; in [10]) was 85% throughout.

As for `CC1(C)S[C@@H]2[C@H](NC(=O)[C@H](N)c3ccccc3)C(=O)N2[C@H]1C(=O)O` [ampicillin], the Antibiotic susceptibility category result is listed as “resistant” in assay [7], “resistance” in [9] and “resistant” in [8].

Turning to AVAGEKLWLLPHLLKMLLTPTP-NH2 [Polydim-I], the “Minimal inhibitory concentration” value in assay [4], in assay [5] and in assay [6] was over 25 µM throughout.
